Counter-ions that a name gives are not always drawn. Like-named read-outs stand apart in the source and are kept apart here.
System: murine neural precursor cells (neurosphere cultures)
Experiment: HTS of LOPAC library against secondary neurosphere cultures, MTT proliferation assay at 3 μM, day 7 (z score, P value)
Format: cell-based, mouse
[1] = LOPAC primary screen, neurosphere MTT proliferation, 3 μM, day 7
[2] = yes/no: significantly inhibited neurosphere proliferation (P<0.01) in primary screen
[3] = LOPAC library screen, 3 μM, MTT, secondary neurosphere cultures, day 7
[4] = yes/no: significantly inhibited neurosphere proliferation (P<0.01) in the primary screen
[5] = LOPAC library screen at 3 μM, secondary neurosphere cultures, MTT
[6] = yes = significantly inhibited neurosphere proliferation (P<0.01) in the primary screen
[7] = LOPAC screen, neurosphere MTT proliferation, 3 μM, day 7
[8] = LOPAC library screen, 3 μM, MTT, neurosphere cultures
[9] = primary LOPAC screen, 3 μM, MTT, neurosphere proliferation
[10] = yes/no: significantly inhibited neurosphere proliferation in the primary screen
[11] = yes/no: significantly inhibited neurosphere proliferation in primary screen

## CC(C)[N+]1(C)[C@@H]2CC[C@H]1CC(OC(=O)C(CO)c1ccccc1)C2.[Br-] (stereo partly shown) [Ipratropium bromide]
  Z Score: −0.308
[1]
  Z score: −0.308
[2]
  Activity: no

## CCC(=O)c1ccc2c(c1)N(CCCN(C)C)c1ccccc1S2 [Propionylpromazine hydrochloride]
[3]
  Z Score: −1.584
[1]
  Z score: −1.584
[4]
  Activity: no

## COc1cc2c(cc1O)CC[C@@H]1[C@@H]2CC[C@]2(C)[C@@H](O)CC[C@@H]12 [2-methoxyestradiol]
[5]
  Z Score: −0.9833
[1]
  Z score: −0.983
[6]
  Activity: no

## CC1(C(=O)O)C2CCC(O2)C1(C)C(=O)O (stereo not shown) [Cantharidic Acid]
  Z Score: −0.5529
[7]
  Z score: −0.553
[2]
  Activity: no

## CCCCCCCCCCCCCCC[C@H](O)[C@H](N)CO (racemic) [DL-erythro-Dihydrosphingosine]
[8]
  Z Score: −0.0785
[7]
  Z score: −0.079
[2]
  Activity: no

## O=c1c(-c2ccc(O)cc2)coc2cc(O)ccc12 [Daidzein]
[3]
  Z Score: −2.931
[1]
  Z score: −2.931
[4]
  Activity: yes

## CN(C)[C@@H]1C(O)=C(C(N)=O)C(=O)[C@@]2(O)C(O)=C3C(=O)c4c(O)ccc(Cl)c4[C@@H](O)[C@H]3C[C@@H]12 [Demeclocycline hydrochloride]
[8]
  Z Score: −0.06452
[7]
  Z score: −0.065
[2]
  Activity: no

## Cn1cnc2c(NCc3ccccc3)nc(NCCO)nc21 [Olomoucine]
168 h, 3 µM
  Z Score: 1.553
  Z score: 1.553

## CCN(CC)CCNC(=O)c1ccc(NC(C)=O)cc1.Cl [N-Acetylprocainamide hydrochloride]
  Z Score: −4.557
[1]
  Z score: −4.557
[4]
  Activity: yes

## N[C@H](C(=O)O)c1cc(O)cc(O)c1 [(S)-3,5-Dihydroxyphenylglycine]
[5]
  Z Score: −0.3364

## COC(=O)C1=C(C)NC(C)=C(C(=O)OC)C1c1ccccc1[N+](=O)[O-] [Nifedipine]
168 h, 3 µM
  Z Score: −0.2937
  Z score: −0.294

## CC(C)(C)c1ccc(C(O)CCCN2CCC(C(O)(c3ccccc3)c3ccccc3)CC2)cc1 (stereo not shown) [Terfenadine]
  Activity: no
[8]
  Z Score: 0.7553
[9]
  Z score: 0.755

## N#C/C(=C\c1ccc(O)c(O)c1)C(=O)Nc1ccccc1 [Tyrphostin AG 494]
  Z Score: −2.275
[9]
  Z score: −2.275
[10]
  Activity: no

## CC[C@]1(O)C[C@H]2CN(CCc3c([nH]c4ccccc34)[C@@](C(=O)OC)(c3cc4c(cc3OC)N(C=O)[C@H]3[C@@](O)(C(=O)OC)[C@H](OC(C)=O)[C@]5(CC)C=CCN6CC[C@]43[C@@H]65)C2)C1 [Vincristine sulfate]
[3]
  Z Score: −10.79
[1]
  Z score: −10.792
[4]
  Activity: yes

## N[C@H](CO)C(=O)O [D-Serine]
[5]
  Z Score: −0.1429
[1]
  Z score: −0.143
[11]
  Activity: no

## Oxotremorine sesquifumarate salt
  Z Score: 0.8552
[1]
  Z score: 0.855
[11]
  Activity: no

## COc1cc(CC(C)N)c(OC)cc1I.Cl (stereo not shown) [(B1)-DOI hydrochloride]
  Z Score: −1.345

## COc1ccc(/C=C/C(=O)Nc2ccccc2C(=O)O)cc1OC [Tranilast]
[8]
  Z Score: 0.1736
[9]
  Z score: 0.174

## NC(=O)c1ccccc1 [Benzamide]
168 h, 3 µM
  Z score: 0.550
[10]
  Activity: no

## COCc1nc2c([nH]1)c(=O)n(C)c(=O)n2CC(C)C [8-Methoxymethyl-3-isobutyl-1-methylxanthine]
[5]
  Z Score: −0.3403
[1]
  Z score: −0.340
[6]
  Activity: no

## Cc1cc(C(C)(C)C)c(O)c(C)c1CC1=NCCN1 [Oxymetazoline hydrochloride]
[3]
  Z Score: −2.72
[1]
  Z score: −2.720
[6]
  Activity: yes

## CC(C)[C@H]1CN[C@H](C(=O)O)[C@H]1CC(=O)O [Dihydrokainic acid]
  Z Score: 1.329
[7]
  Z score: 1.329
[2]
  Activity: no

## Oc1cc(O)cc(/C=C/c2ccc(O)c(O)c2)c1 [Piceatannol]
168 h, 3 µM
  Z Score: 0.5958
  Z score: 0.596

## CN(C)CCCN1c2ccccc2CCc2ccccc21 [Imipramine hydrochloride]
  Activity: no
[5]
  Z Score: −0.5272
[1]
  Z score: −0.527

## COC(=O)C(N)Cc1ccc(Cl)cc1.Cl (racemic) [DL-p-Chlorophenylalanine methyl ester hydrochloride]
  Z Score: 0.1276
[7]
  Z score: 0.128
[2]
  Activity: no

## O=C(O)c1cccnc1Nc1cccc(C(F)(F)F)c1 [Niflumic acid]
[3]
  Z Score: −1.958
[1]
  Z score: −1.958
[6]
  Activity: no

## CN1CCc2ccccc2Cc2[nH]c3ccccc3c2CC1 [LE 300]
  Activity: no
  Z Score: −1.07
  Z score: −1.070

## O.c1cnc2c(c1)ccc1cccnc12 [1,10-Phenanthroline monohydrate]
  Z Score: −0.8855
[1]
  Z score: −0.886
[11]
  Activity: no

## O=C1N=c2cc(Cl)c(Cl)cc2=NC1=O [6,7-Dichloroquinoxaline-2,3-dione]
[8]
  Z Score: 0.1274
[7]
  Z score: 0.127
[2]
  Activity: no

## NC1CCN(O)C1=O (stereo not shown) [(B1)-HA-966]
  Z Score: 1.157

## NC(=O)c1cccc(N)c1 [3-aminobenzamide]
  Z Score: −1.034
[1]
  Z score: −1.034
[11]
  Activity: no

## COc1cc2nc(N3CCN(C(=O)c4ccco4)CC3)nc(N)c2cc1OC [Prazosin hydrochloride]
  Activity: yes
[3]
  Z Score: −2.902
[1]
  Z score: −2.902

## Cl.O=C(O)Cc1c[nH]cn1 [Imidazole-4-acetic acid hydrochloride]
  Z Score: −0.9223
[1]
  Z score: −0.922
[2]
  Activity: no

## CC(C)(C)c1cc(/C=C(\C#N)C(N)=S)cc(C(C)(C)C)c1O [Tyrphostin AG 879]
[3]
  Z Score: −1.607
[9]
  Z score: −1.607
[10]
  Activity: no

## COc1ccccc1N1CCNCC1.Cl [1-(2-Methoxyphenyl)piperazine hydrochloride]
  Z Score: −0.6388
[1]
  Z score: −0.639
[11]
  Activity: no

## O=c1c(-c2ccc(O)cc2)coc2cc(O)cc(O)c12 [Genistein]
[5]
  Z Score: −0.4689
[1]
  Z score: −0.469
[4]
  Activity: no

## CN(C)C(=O)C(CCN1CCC(O)(c2ccc(Cl)cc2)CC1)(c1ccccc1)c1ccccc1 [Loperamide hydrochloride]
  Z Score: −0.4976
[1]
  Z score: −0.498
[2]
  Activity: no

## Br.Oc1ccc(C2CNCc3sccc32)cc1O (stereo not shown) [SKF 89626]
  Activity: no
  Z Score: −0.04369
[1]
  Z score: −0.044

## CCCn1c(=O)c2c(ncn2C)n(CCC)c1=O [1,3-Dipropyl-7-methylxanthine]
168 h, 3 µM
  Z Score: −0.08896
  Z score: −0.089
[2]
  Activity: no

## N#C/C(=C\c1ccc(O)c(O)c1)C(=O)NCc1ccccc1 [Tyrphostin AG 490]
LOPAC library screen at 3 μM, MTT, secondary neurosphere cultures, screened in singlets
  Z Score: 1.802
[9]
  Z score: 1.802
[10]
  Activity: no

## CCCN(CCC)[C@@H]1CCc2c(F)ccc(O)c2C1.Cl [R(+)-UH-301 hydrochloride]
  Z Score: −2.517
[1]
  Z score: −2.517
[4]
  Activity: yes

## Cn1ccnc1 [1-Methylimidazole]
168 h, 3 µM
  Z Score: −0.8469
  Z score: −0.847
[6]
  Activity: no

## COc1ccc2c(c1OC)C(=O)OC2C1c2cc3c(cc2CCN1C)OCO3 (single isomer, unassigned; (+)) [(+)-Hydrastine]
  Z Score: −0.8362
[1]
  Z score: −0.836
[4]
  Activity: no

## NC(Cc1ccc(Cl)cc1)C(=O)O (stereo not shown) [(B1)-p-Chlorophenylalanine]
  Z Score: −0.2471

## (S)-(−)-propafenone hydrochloride
[5]
  Z Score: −0.7524
[1]
  Z score: −0.752
[11]
  Activity: no

## O=S(=O)(c1cccc2cnccc12)N1CCNCC1 [HA-100]
  Z Score: −0.6892
[1]
  Z score: −0.689
[4]
  Activity: no

## Fc1ccc(C(c2ccc(F)cc2)N2CCN(C/C=C/c3ccccc3)CC2)cc1 [Flunarizine dihydrochloride]
[8]
  Z Score: 0.3954
[1]
  Z score: 0.395
[2]
  Activity: no

## N[C@H](C(=O)O)[C@H]1C[C@@H]1C(=O)O
  Z Score: 1.233
[7]
  Z score: 1.233
[2]
  Activity: no

## CC(NC(C)(C)C)C(=O)c1cccc(Cl)c1 (stereo not shown) [Bupropion hydrochloride]
[8]
  Z Score: 0.2671
[7]
  Z score: 0.267
[2]
  Activity: no

## NS(=O)(=O)c1cc2c(cc1Cl)NC(C1CC3C=CC1C3)NS2(=O)=O (stereo not shown) [Cyclothiazide]
[5]
  Z Score: −0.907
[7]
  Z score: −0.907
[2]
  Activity: no

## Nc1ccc(CCNc2ncnc3c2ncn3[C@@H]2O[C@H](CO)[C@@H](O)[C@H]2O)cc1 [N6-2-(4-Aminophenyl)ethyladenosine]
168 h, 3 µM
  Z Score: −1.323
  Z score: −1.323
[10]
  Activity: no

## CCCCCCCCCCCCCCCC(=O)OC(CC(=O)O)C[N+](C)(C)C.[Cl-] (racemic) [Palmitoyl-DL-Carnitine chloride]
  Z Score: 0.1995

## NN=C(N)N.NN=C(N)N.O=S(=O)(O)O [Aminoguanidine hemisulfate]
  Activity: no
  Z Score: −1.219
  Z score: −1.219

## CCCCCCCCCCCCCCCCCCNC(=O)OCC(COP(=O)([O-])OCC[n+]1ccsc1)OC (stereo not shown) [CV-3988]
  Z Score: −0.4371
[1]
  Z score: −0.437
[11]
  Activity: no

## CN1C2CCC1CC(OC(=O)c1cc(Cl)cc(Cl)c1)C2 (stereo not shown) [ML-9]
  Z Score: −9.322
[1]
  Z score: −9.322

## CNCC(O)c1ccc(O)c(O)c1.Cl (racemic) [(±)-Epinephrine hydrochloride]
[1]
  Z score: −0.328
[2]
  Activity: no

Source: US8058243B2, “Method for treating a brain cancer with ifenprodil” (HSC Research and Development Limited Partnership, priority 2006, dated 2011)
